From US7449495B2, “Retinoid derivatives with antiangiogenic, antitumoral and proapoptotic activities” (Sigma-Tau Industrie Farmaceutiche Riunite S.p.A., priority 2001, dated 2008)

Assays:
[1] = system: 3LL murine Lewis lung carcinoma; assay: Antitumoral activity in murine Lewis lung carcinoma model 3LL; format: in vivo, C57BL/6J mice; settings: 10 mg/kg po, qdx5x3w
Experimental: Murine pulmonary adenocarcinoma Madison 109 cells (M109) were maintained by s.c. passage of tumor fragments. The day of inoculation, the cell suspension was injected i.m. in the rear left limb of a 20 g male BALB/c mouse at a density of 3×10^5 cells/mouse. 3LL murine Lewis lung carcinoma was routinely maintained by i.m. passages (every 10-14 days) of 1×10^5 cells/mouse in C57BL/6J mice. For antitumor activity experiments, tumors were excised from donor mice and after mechanical desegregation and enzymatic digestion tumor cell viability was assessed by the trypan blue dye exclusion test. Then, 1×10^5 cells/100 μl/mouse were injected i.m. into the right hind leg muscle of C57BL/6J mice.
Tumor dimension measurements were performed using a digital calliper (Vernier Caliper) from the day in which the mass became measurable, twice weekly. The tumor mass was assessed from the size of the two principal dimensions (length and breadth), expressed in mm, applying the formula (length×breadth^2)/2 that is, the tumor volume in mm3. For every experimental group the percentage of inhibition of tumor volume (TVI %) was calculated, with respect to that of the control that is (100−(T/C %). TVI was evaluated 2 days after the final administration of ST1926.
The mean survival time (MST) was also measured and the increase in mean life-span expressed as ILS % (increase of life span) calculated as (MSTT/MSTC)×100−100.
The comparison between the values of TVI and of survival time, obtained for each group were performed with the non parametric Mann Whitney test for non paired data, using the Instat software from GraphPad inc. […]
The mice (8 for each group) were weighed prior to each treatment, firstly, so as to be able to administer the correct quantity of substance, based on the eventual variations in weight observed throughout the period of drug administration, and also to be able to register the maximum weight loss throughout the treatment (BWL % max).

[2] = system: Human prostate carcinoma PC3; assay: Cytotoxicity test (sulphorodamine B), PC3; format: cell-based; settings: 24 h incubation, survival 48 h after removal, read-out: IC50
From the text: (§1) Different cell lines deriving from solid tumors were also used. • 1. Human prostate carcinoma PC3 and DU145. These cell lines were maintained in RPMI 1640 medium containing 10% FCS, 1% sodium pyruvate and 1% glutamine; • 2. Human colon adenocarcinoma LoVo. This cell line was maintained in HAM's F-12 medium, containing 10% FCS and 1% glutamine. • 3. Human ovarian carcinoma such as A2780 and A2780/Dx, sensitive and resistant to drugs, respectively (doxorubicin, taxol, etoposide, vincristine); IGROV-1 and IGROV-1/Pt, sensitive and resistant to platinum-based chemotherapy, respectively, were maintained in RPMI 1640 medium containing 10% FCS, 1% sodium pyruvate and 1% glutamine; • 4. Human melanoma MeWo and MeS 2.21, glioblastoma GBM, no small cell lung carcinomas A431, NCI—H460, osteosarcomas SAOS and U2OS were maintained in RPMI 1640 medium containing 10% FCS, 1% sodium pyruvate and 1% glutamine.
(§2) The cytotoxicity tests were carried out using NB4 or HL-60 cells in suspension (10000/well). The cells were seeded in a volume of 250 μl in 96 well plates and incubated for 24 hours at 37° C. […] The optical density was measured using a Multiskan spectrophotometer at 540 nm. […]
(§3) Cell survival was determined by incubation with ST1926 for 24 hours, 48 hours after the removal of the compound. […]

[3] = system: no small cell lung carcinoma NCI-H460; assay: Cytotoxicity test (sulphorodamine B), NCI-H460; format: cell-based; settings: Homo sapiens, 24 h incubation, survival 48 h after removal
From the text: as §1, §2, §3

O=C(O)/C=C/c1ccc(-c2ccc(O)c(C34CC5CC(CC(C5)C3)C4)c2)cc1 [ST1926, E-4-(3-(1-adamantyl)-4-hydroxyphenyl)cinnamic acid]
BWL % Max [1]: 7%
ILS % [1]: 52%
MST (range days) [1]: *32 (24-42) days
IC50 [2]: 210 nM
IC50 [3]: 190 nM
